The experiment concerns aortas of SHR rats. Kind of experiment: Contractile response induced by noradrenalin in isolated aorta, organ bath. Set-up: species or system rat. The settings on record: aortas pre-treated 60 minutes in organ bath at 37° C., vs vehicle, p<0.05. Here is the method: FIG. 11. Effect of OHOD on the contractile response induced by noradrenalin (NA) in aortas of SHR rats. The logarithm of NA is shown on the horizontal axis and the concentration (g) is shown on the vertical axis. The aortas were treated with OHOD (filled circles) or vehicle (empty circles) for 60 minutes in an organ bath at 37° C. in Ringer medium with oxygen.
Atherosclerosis or arteriosclerosis is a pathology characterised by the loss of contractility of blood vessels. This loss is associated with diverse factors, among which is the formation of deposits on the vascular lumen giving rise to the proliferation of vascular cells, reduction of blood flow and vasoconstrictor and vasodilator responses to neurotransmitters (such as noradrenalin) and to hormones. In studies in isolated rat aorta in organ bath, it was shown that the contraction power of the aortic muscle in response to noradrenalin increased very markedly after pre-treatments with OHOD acid. In addition, all the compounds with the structure of Formula I had similar effects on vascular muscle.

The results in this text go back to US9730906B2, “α-derivatives of cis-monounsaturated fatty acids for use as medicines” (UNIVERSITAT DE LES ILLES BALEARS, priority 2008, dated 2017).

With `CCCCCCCC/C=C\CCCCCCC(O)C(=O)O` (stereo not drawn) [OHOD, α-Hydroxy-cis-Δ9-octadecenoic], the “contractile response induced by noradrenalin (NA)” value is listed as “much higher”.
